Among the data in US12371454B2, “Cyclic peptide compound having Kras inhibitory action” (priority 2019, dated 2025) are IC50 values, retold here.

In the assay the target is T1, Kras and SOS1 (biotin-tagged human Kras loaded with GDP, His-tagged human SOS1) (Homo sapiens, UniProt P01116, G12D).
T1 construct: made in house; host or cells: E. coli (stated for Kras only)
Put plainly: Protein-protein interaction inhibition between Kras and SOS1 (KrasGl2D-SOS PPI) using AlphaScreen. In kind it is binding. The following applies: AlphaScreen; biotin-tagged human Kras loaded with GDP, His-tagged human SOS1; read-out: KRAS G12D-SOS PPI IC50. In a few lines: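 Donor beads (nickel) hold His-SOS1; acceptor beads (streptavidin) hold biotin-Kras bound to GDP. Signal measured at 520-620 nm following 680 nm excitation.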
On the technique in general: Bead proximity is the source of the signal in Alpha formats.

pIC50: −log10 of the molar value. Starred links: 1 amine or outer side, 2 acyl side, 3 side chain; linkers in the order of their positions; H or OH if unused. Positions of bridges follow the written chain, without caps; N, C: chain ends. Non-standard residues stand in square brackets, D forms with d. Residues, ends and D or L forms follow the SMILES beside them. *: point of attachment. hPhe(3-Cl-4-CF3) = N[C@@H](CCc1ccc(C(F)(F)F)c(Cl)c1)C(=O)O; hPhe(3-OMe-4-CF3) = COc1cc(CC[C@H](N)C(=O)O)ccc1C(F)(F)F; X67 = O=C([C@H](CCc1cc(F)c(F)cc1F)N[*:1])[*:2]; NMeTyr(3-F) = CN[C@@H](Cc1ccc(O)c(F)c1)C(=O)O; NMePhe(4-Cl) = CN[C@@H](Cc1ccc(Cl)cc1)C(=O)O; NEtPhe(2-Cl) = CCN[C@@H](Cc1ccccc1Cl)C(=O)O; NMePhe(4-Me) = CN[C@@H](Cc1ccc(C)cc1)C(=O)O; NMedβ3hAla = C[C@H](CC(=O)[*:2])N(C)[*:1]; NMeAla(cPent) = CN[C@@H](CC1CCCC1)C(=O)O; NMeGly(cPent) = CN[C@H](C(=O)O)C1CCCC1; Phe(3-I) = N[C@@H](Cc1cccc(I)c1)C(=O)O; X70 = CC(C)(O)COCCN(CC(=O)[*:2])[*:1]; NMeCha = CN[C@@H](CC1CCCCC1)C(=O)O; NMeChg = CN[C@H](C(=O)O)C1CCCCC1; NMeF = CN[C@@H](Cc1ccccc1)C(=O)O; NMeI = CC[C@H](C)[C@H](NC)C(=O)O; NMeE = CN[C@@H](CCC(=O)O)C(=O)O; NMeD = CN[C@@H](CC(=O)O)C(=O)O; Benzyl(4-Cl) = Clc1ccc(C*)cc1; NMeL = CN[C@@H](CC(C)C)C(=O)O; NMeV = CN[C@H](C(=O)O)C(C)C; d(β3hA) = C[C@@H](N)CC(=O)O; NMeAbu = CC[C@H](NC)C(=O)O; Morpholide = C1CN(*)CCO1; NMeA = CN[C@@H](C)C(=O)O; NMeAib = CNC(C)(C)C(=O)O; Nle = CCCC[C@H](N)C(=O)O; Piperidide = C1CCN(*)CC1; Pyrrolidide = C1CCN(*)C1; Ac5c = NC1(C(=O)O)CCCC1; Aze = O=C(O)[C@@H]1CCN1; X76 = Clc1cccc(C*)c1; X27 = Clc1ccccc1C*; Sar = CNCC(=O)O

T1 sequence (P01116 1-188 isoform P01116-2 G12D): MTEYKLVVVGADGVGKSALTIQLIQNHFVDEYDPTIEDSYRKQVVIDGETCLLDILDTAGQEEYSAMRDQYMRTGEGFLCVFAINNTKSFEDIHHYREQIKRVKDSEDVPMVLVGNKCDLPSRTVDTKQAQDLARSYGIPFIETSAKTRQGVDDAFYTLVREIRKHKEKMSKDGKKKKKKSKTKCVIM

As to `CC[C@H](C)[C@@H]1NC(=O)[C@H](CC(C)C)N(C)C(=O)C[C@@H](C(=O)N(C)C)N(C)C(=O)[C@H]([C@@H](C)CC)N(C)C(=O)C2(CCCC2)NC(=O)CN(CCOCC(C)(C)O)C(=O)[C@H](CCc2ccc(C(F)(F)F)c(Cl)c2)NC(=O)CN(C)C(=O)[C@H](Cc2ccc(C)cc2)N(C)C(=O)[C@@H]2CCN2C(=O)[C@H](C)N(C)C1=O` [Compound 2034] ([NMeL]I[NMeA][Aze][NMePhe(4-Me)][Sar][hPhe(3-Cl-4-CF3)][X70][Ac5c][NMeI][NMeD]-NMe2; lactam N-11), the negative-log IC50 (pIC50) was 8.70.
Next, `CC[C@H](C)[C@@H]1NC(=O)[C@H](C)N(C)C(=O)C[C@@H](C(=O)N2CCCCC2)N(C)C(=O)[C@H](C2CCCCC2)N(C)C(=O)C2(CCCC2)NC(=O)[C@@H]2CCCN2C(=O)[C@H](COc2ccc(Cl)cc2)NC(=O)CN(C)C(=O)[C@H](CC2CCCCC2)N(C)C(=O)CN(C)C(=O)CN(C)C1=O` [Compound 2042, (3S,9S,18S,21S,25S,28S,34S)-3-[(4-chlorophenoxy)methyl]-28-cyclohexyl-9-(cyclohexylmethyl)-7,10,13,16,21,22,26,29-octamethyl-18-[(1S)-1-methylpropyl]-25-(piperidine-1-carbonyl)spiro[1,4,7,10,13,16,19,22,26,29,32-undecazabicyclo[32.3.0]heptatriacontane-31,1′-cyclopentane]-2,5,8,11,14,17,20,23,27,30,33-undecone]: 7.15.
On to `CC[C@H](C)[C@@H]1NC(=O)[C@H](C)N(C)C(=O)C[C@@H](C(=O)N2CCCCC2)N(C)C(=O)[C@H](C2CCCCC2)N(C)C(=O)C2(CCCC2)NC(=O)[C@@H]2CCCN2C(=O)[C@H](COCc2ccccc2Cl)NC(=O)CN(C)C(=O)[C@H](CC2CCCCC2)N(C)C(=O)CN(C)C(=O)CN(C)C1=O` [Compound 2043] ([NMeA]I[Sar][Sar][NMeCha][Sar]S(X27)P[Ac5c][NMeChg][NMeD]-Piperidide; lactam N-11), for which the pIC50 is 7.92.
For the compound `CC[C@H](C)[C@@H]1NC(=O)[C@H](C)N(C)C(=O)C[C@@H](C(=O)N2CCCCC2)N(C)C(=O)[C@H](C2CCCCC2)N(C)C(=O)C2(CCCC2)NC(=O)[C@@H]2CCCN2C(=O)[C@H](COCc2ccc(Cl)cc2)NC(=O)CN(C)C(=O)[C@H](CC2CCCCC2)N(C)C(=O)CN(C)C(=O)CN(C)C1=O` [Compound 2044] ([NMeA]I[Sar][Sar][NMeCha][Sar]S(Benzyl(4-Cl))P[Ac5c][NMeChg][NMeD]-Piperidide; lactam N-11), the pIC50 was 8.10.
Next, `CC[C@H](C)[C@@H]1NC(=O)[C@H](C)N(C)C(=O)C[C@@H](C(=O)N2CCCCC2)N(C)C(=O)[C@H](C2CCCCC2)N(C)C(=O)C2(CCCC2)NC(=O)[C@@H]2CCCN2C(=O)[C@H](COCc2cccc(Cl)c2)NC(=O)CN(C)C(=O)[C@H](CC2CCCCC2)N(C)C(=O)CN(C)C(=O)CN(C)C1=O` [Compound 2045] ([NMeA]I[Sar][Sar][NMeCha][Sar]S(X76)P[Ac5c][NMeChg][NMeD]-Piperidide; lactam N-11): 7.82; `CC[C@H](C)[C@@H]1NC(=O)[C@H](CC(C)C)N(C)C(=O)C[C@@H](C(=O)N2CCCCC2)N(C)C(=O)[C@H](C2CCCC2)N(C)C(=O)C2(CCCC2)NC(=O)[C@@H]2CCCN2C(=O)[C@H](CCc2ccc(C(F)(F)F)c(OC)c2)NC(=O)CN(C)C(=O)[C@H](CC2CCCCC2)N(C)C(=O)[C@@H]2CCN2C(=O)[C@H](C)N(C)C1=O` [Compound 2080] ([NMeL]I[NMeA][Aze][NMeCha][Sar][hPhe(3-OMe-4-CF3)]P[Ac5c][NMeGly(cPent)][NMeD]-Piperidide; lactam N-11): 9.48.
With `CC[C@H](C)[C@@H]1NC(=O)[C@H](C)N(C)C(=O)C[C@@H](C)NC(=O)[C@H](CC(C)C)N(C)C(=O)[C@H](Cc2ccccc2)N(C)C(=O)[C@H](CC(C)C)NC(=O)[C@H](CCc2cc(F)c(F)cc2F)NC(=O)CN(C)C(=O)[C@H](Cc2ccc(Cl)cc2)N(C)C(=O)CN(C)C(=O)CN(C)C1=O` [Compound 2087] (cyclo(I[Sar][Sar][NMePhe(4-Cl)][Sar][X67]L[NMeF][NMeL][d(β3hA)][NMeA])) the figure was 6.89.
With `CCCC[C@@H]1NC(=O)[C@H](Cc2cccc(I)c2)NC(=O)CN(C)C(=O)[C@H](Cc2ccc(C)cc2)N(C)C(=O)CN(C)C(=O)CN(C)C(=O)[C@H]([C@@H](C)CC)NC(=O)[C@H](CC(C)C)N(C)C(=O)C[C@@H](C(=O)N2CCCCC2)N(C)C(=O)[C@H](CC(C)C)NC(=O)[C@H](CCC(=O)N(C)C)N(C)C1=O` [Compound 2100, 3-[(3S,6S,9S,12S,18S,27S,30S,34S)-9-butyl-12-[(3-iodophenyl)methyl]-3,30-diisobutyl-1,7,16,19,22,25,31-heptamethyl-27-[(1S)-1-methylpropyl]-2,5,8,11,14,17,20,23,26,29,32-undecaoxo-34-(piperidine-1-carbonyl)-18-(p-tolylmethyl)-1,4,7,10,13,16,19,22,25,28,31-undecazacyclotetratriacont-6-yl]-N,N-dimethyl-propanamide] ([NMeL]I[Sar][Sar][NMePhe(4-Me)][Sar][Phe(3-I)][Nle][NMeE](NMe2)L[NMeD]-Piperidide; lactam N-11) the figure was 7.82.
Regarding `CC[C@H](C)[C@@H]1NC(=O)[C@H](CC(C)C)N(C)C(=O)C[C@@H](C(=O)N2CCOCC2)N(C)C(=O)[C@H](C2CCCC2)N(C)C(=O)C2(CCCC2)NC(=O)[C@H](CCC(=O)NC)N(C)C(=O)[C@H](CCc2ccc(C(F)(F)F)c(Cl)c2)NC(=O)CN(C)C(=O)[C@H](CC2CCCCC2)N(C)C(=O)[C@@H]2CCN2C(=O)[C@H](C)N(C)C1=O` [Compound 2111] ([NMeL]I[NMeA][Aze][NMeCha][Sar][hPhe(3-Cl-4-CF3)][NMeE](NHMe)[Ac5c][NMeGly(cPent)][NMeD]-Morpholide; lactam N-11), the pIC50 is 8.09.
With `CC[C@H](C)[C@@H]1NC(=O)[C@H](C)N(C)C(=O)C[C@@H](C)N(C)C(=O)[C@H]([C@@H](C)CC)N(C)C(=O)C(C)(C)N(C)C(=O)[C@@H]2CCCN2C(=O)[C@H](CCc2ccc(C(F)(F)F)c(Cl)c2)NC(=O)CN(C)C(=O)[C@H](CC2CCCCC2)N(C)C(=O)[C@@H]2CCN2C(=O)[C@H](C)N(C)C1=O` [Compound 2153] (cyclo([Aze][NMeCha][Sar][hPhe(3-Cl-4-CF3)]P[NMeAib][NMeI][NMedβ3hAla][NMeA]I[NMeA])) the figure was 8.16.
With `CC[C@H](C)[C@@H]1NC(=O)[C@H](C)N(C)C(=O)C[C@@H](C)N(C)C(=O)[C@H](CC)N(C)C(=O)C(C)(C)N(C)C(=O)[C@@H]2CCCN2C(=O)[C@H](CCc2ccc(C(F)(F)F)c(Cl)c2)NC(=O)CN(C)C(=O)[C@H](CC2CCCCC2)N(C)C(=O)[C@@H]2CCN2C(=O)[C@H](C)N(C)C1=O` [Compound 2154] (cyclo([Aze][NMeCha][Sar][hPhe(3-Cl-4-CF3)]P[NMeAib][NMeAbu][NMedβ3hAla][NMeA]I[NMeA])) the figure was 7.48; with `CC[C@H](C)[C@@H]1NC(=O)[C@H](C)N(C)C(=O)C[C@@H](C)N(C)C(=O)[C@H](C2CCCC2)N(C)C(=O)C(C)(C)N(C)C(=O)[C@@H]2CCCN2C(=O)[C@H](CCc2ccc(C(F)(F)F)c(Cl)c2)NC(=O)CN(C)C(=O)[C@H](CC2CCCCC2)N(C)C(=O)[C@@H]2CCN2C(=O)[C@H](C)N(C)C1=O` [Compound 2156] (cyclo([Aze][NMeCha][Sar][hPhe(3-Cl-4-CF3)]P[NMeAib][NMeGly(cPent)][NMedβ3hAla][NMeA]I[NMeA])), 8.35.
Turning to `CC[C@H](C)[C@@H]1NC(=O)[C@H](C)N(C)C(=O)C[C@@H](C)N(C)C(=O)[C@H](CC2CCCC2)N(C)C(=O)C(C)(C)N(C)C(=O)[C@@H]2CCCN2C(=O)[C@H](CCc2ccc(C(F)(F)F)c(Cl)c2)NC(=O)CN(C)C(=O)[C@H](CC2CCCCC2)N(C)C(=O)[C@@H]2CCN2C(=O)[C@H](C)N(C)C1=O` [Compound 2158] (cyclo([Aze][NMeCha][Sar][hPhe(3-Cl-4-CF3)]P[NMeAib][NMeAla(cPent)][NMedβ3hAla][NMeA]I[NMeA])), the negative-log IC50 (pIC50) was 7.05.
Next, `CC[C@H](C)[C@@H]1NC(=O)[C@H](C)N(C)C(=O)C[C@@H](C)N(C)C(=O)[C@H](CC(C)C)N(C)C(=O)C(C)(C)N(C)C(=O)[C@@H]2CCCN2C(=O)[C@H](CCc2ccc(C(F)(F)F)c(Cl)c2)NC(=O)CN(C)C(=O)[C@H](CC2CCCCC2)N(C)C(=O)[C@@H]2CCN2C(=O)[C@H](C)N(C)C1=O` [Compound 2160] (cyclo([Aze][NMeCha][Sar][hPhe(3-Cl-4-CF3)]P[NMeAib][NMeL][NMedβ3hAla][NMeA]I[NMeA])): 8.42; `CC[C@H](C)[C@@H]1NC(=O)[C@H](C)N(C)C(=O)C[C@@H](C(=O)N2CCCC2)N(C)C(=O)[C@H](C(C)C)N(C)C(=O)C2(CCCC2)NC(=O)[C@H](Cc2ccccc2Cl)N(CC)C(=O)[C@H](CCc2ccc(C(F)(F)F)c(Cl)c2)NC(=O)CN(C)C(=O)[C@H](CC2CCCCC2)N(C)C(=O)CN(C)C(=O)CN(C)C1=O` [Compound 2162] ([NMeA]I[Sar][Sar][NMeCha][Sar][hPhe(3-Cl-4-CF3)][NEtPhe(2-Cl)][Ac5c][NMeV][NMeD]-Pyrrolidide; lactam N-11): 6.70; `CC[C@H](C)[C@@H]1NC(=O)[C@H](CC(C)C)N(C)C(=O)C[C@@H](C(=O)N2CCCCC2)N(C)C(=O)[C@H](C2CCCCC2)N(C)C(=O)C2(CCCC2)NC(=O)[C@H](Cc2ccc(O)c(F)c2)N(C)C(=O)[C@H](CCc2ccc(C(F)(F)F)c(Cl)c2)NC(=O)CN(C)C(=O)[C@H](CC2CCCCC2)N(C)C(=O)CN(C)C(=O)CN(C)C1=O` [Compound 2170] ([NMeL]I[Sar][Sar][NMeCha][Sar][hPhe(3-Cl-4-CF3)][NMeTyr(3-F)][Ac5c][NMeChg][NMeD]-Piperidide; lactam N-11): 7.16.

For orientation: pIC50 means the IC50 on a negative log10 scale, so that one unit is a factor of ten.
